Laboratory results from PubChem BioAssay (NCI).
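In this assay, cells in 96-well plates receive the compound at five concentrations for 48 hours. Endpoints are linearly interpolated between the surrounding concentrations. GI50 marks 50% less growth. TGI: total growth inhibition.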

How the values were obtained:
Assay in all cases: NCI-60 cell line screen, 48 h
[1] = tested on: UACC-62 melanoma
[2] = tested on: SF-295 CNS
[3] = tested on: BT-549 breast
[4] = tested on: SK-OV-3 ovarian
[5] = tested on: SF-539 CNS
[6] = tested on: MDA-MB-231 breast
[7] = tested on: HOP-92 NSCLC
[8] = tested on: CAKI-1 renal
[9] = tested on: DU-145 prostate
[10] = tested on: TK-10 renal
[11] = tested on: M14 melanoma
[12] = tested on: PC-3 prostate
[13] = tested on: IGROV1 ovarian
[14] = tested on: MALME-3M melanoma
[15] = tested on: UO-31 renal
[16] = tested on: NCI/ADR-RES ovarian
[17] = tested on: A498 renal
[18] = tested on: UACC-257 melanoma
[19] = tested on: NCI-H226 lung
[20] = tested on: NCI-H23 lung
[21] = tested on: MOLT-4 leukemia
[22] = tested on: OVCAR-5 ovarian
[23] = tested on: HL-60(TB) leukemia
[24] = tested on: SF-268 CNS
[25] = tested on: SK-MEL-2 melanoma
[26] = tested on: NCI-H522 lung
[27] = tested on: SK-MEL-5 melanoma
[28] = tested on: MDA-MB-435
[29] = tested on: SW-620 colon
[30] = tested on: OVCAR-8 ovarian
[31] = tested on: T-47D breast
[32] = tested on: LOX IMVI melanoma
[33] = tested on: RXF 393 renal
[34] = tested on: A549 NSCLC
[35] = tested on: HT29 colon
[36] = tested on: EKVX NSCLC
[37] = tested on: SN12C renal
[38] = tested on: KM12 colon
[39] = tested on: CCRF-CEM leukemia
[40] = tested on: SK-MEL-28 melanoma
[41] = tested on: HCT-15 colon
[42] = tested on: SNB-75 CNS
[43] = tested on: 786-0 renal
[44] = tested on: ACHN renal
[45] = tested on: SR leukemia
[46] = tested on: OVCAR-3 ovarian
[47] = tested on: SNB-19 CNS
[48] = tested on: U251 CNS
[49] = tested on: HS 578T breast
[50] = tested on: HOP-62 NSCLC
[51] = tested on: HCC-2998 colon
[52] = tested on: K-562 leukemia
[53] = tested on: NCI-H460 lung
[54] = tested on: OVCAR-4 ovarian
[55] = tested on: HCT-116 colon
[56] = tested on: RPMI-8226 leukemia
[57] = tested on: MCF7 breast
[58] = tested on: COLO 205 colon

`O=C1c2[nH]cc(CN[C@@H]3CCCN3)c2C(=O)c2c1c(O)c1ccccc1c2O` gave a GI50 [1] of 1290 nM, a TGI [1] of 2580 nM and a GI50 [2] of 288 nM. The TGI [2] was 1250 nM, the GI50 [3] was 4670 nM and the TGI [3] was 38400 nM. For the same compound, the GI50 [4] was 583 nM, the TGI [4] was 1780 nM and the GI50 [5] was 1360 nM. For the same compound, the TGI [5] was 2670 nM, the GI50 [6] was 527 nM and the TGI [6] was 1840 nM. For the same compound, the GI50 [7] was 190 nM, the TGI [7] was 1650 nM and the GI50 [8] was 927 nM. The TGI [8] was 2870 nM, the GI50 [9] was 786 nM and the TGI [9] was 2040 nM. The GI50 [10] was 1070 nM, the TGI [10] was 2290 nM and the GI50 [11] was 1580 nM. It also gave a TGI [11] of 3000 nM, a GI50 [12] of 358 nM and a TGI [12] of 1510 nM. It also gave a GI50 [13] of 262 nM, a TGI [13] of 1020 nM and a GI50 [14] of 1590 nM. For the same compound, the TGI [14] was 3070 nM, the GI50 [15] was 261 nM and the TGI [15] was 1520 nM. It also gave a GI50 [16] of 3880 nM, a TGI [16] of 30600 nM and a GI50 [17] of 544 nM. It also gave a TGI [17] of 16300 nM.

In the case of `CO/N=C1\CC(C)N2C(=O)C(C(C)C)NC(=O)C(NC(=O)c3c4nc5c(C(=O)NC6C(=O)NC(C(C)C)C(=O)N7C(C)CC(O)C7C(=O)N(C)CC(=O)N(C)C(C(C)C)C(=O)OC6C)ccc(C)c5oc-4c(C)c(=O)c3N)C(CO)OC(=O)C(C)N(C)C(=O)CN(C)C(=O)C12` (stereo unspecified), the TGI [18] is reported as 4310 nM, the TGI [19] is reported as 3810 nM and the TGI [20] is reported as 14500 nM. The TGI [3] was 17000 nM and the TGI [7] was 16900 nM.

`Cc1ccc2c(/C=C/C(=O)c3cc(CN4CCOCC4)c(O)c4nc(C)ccc34)cc(CN3CCOCC3)c(O)c2n1` gave a GI50 [21] of 386 nM, a TGI [21] of 2660 nM and a GI50 [22] of 1550 nM. For the same compound, the TGI [22] was 13100 nM, the GI50 [18] was 2620 nM and the TGI [18] was 13600 nM. The GI50 [19] was 1240 nM, the TGI [19] was 4130 nM and the GI50 [1] was 432 nM. The TGI [1] was 7480 nM, the GI50 [23] was 272 nM and the TGI [23] was 677 nM. It also gave a GI50 [24] of 810 nM, a TGI [24] of 8660 nM and a GI50 [20] of 1130 nM. For the same compound, the TGI [20] was 4500 nM, the GI50 [25] was 623 nM and the TGI [25] was 13100 nM. For the same compound, the GI50 [2] was 765 nM, the TGI [2] was 10300 nM and the GI50 [26] was 332 nM. For the same compound, the TGI [26] was 2000 nM, the GI50 [27] was 581 nM and the TGI [27] was 2320 nM. It also gave a GI50 [28] of 669 nM, a TGI [28] of 2300 nM and a GI50 [29] of 485 nM. For the same compound, the TGI [29] was 2400 nM, the GI50 [30] was 588 nM and the TGI [30] was greater than 100000 nM. For the same compound, the GI50 [31] was 779 nM, the TGI [31] was 14000 nM and the GI50 [3] was 1220 nM. The TGI [3] was 4700 nM, the GI50 [5] was 459 nM and the TGI [5] was 2020 nM. The GI50 [32] was 454 nM, the TGI [32] was 1790 nM and the GI50 [6] was 1440 nM. It also gave a TGI [6] of 5200 nM, a GI50 [33] of 851 nM and a TGI [33] of 2270 nM. It also gave a GI50 [34] of 380 nM, a TGI [34] of 15100 nM and a GI50 [35] of 1640 nM. It also gave a TGI [35] of 3390 nM, a GI50 [36] of 2100 nM and a TGI [36] of 13600 nM. For the same compound, the GI50 [7] was 1110 nM, the TGI [7] was 9780 nM and the GI50 [8] was 297 nM. For the same compound, the TGI [8] was 1530 nM, the GI50 [37] was 683 nM and the TGI [37] was 12400 nM. It also gave a GI50 [38] of 558 nM, a TGI [38] of 2240 nM and a GI50 [10] of 1130 nM. For the same compound, the TGI [10] was 3770 nM, the GI50 [39] was 322 nM and the TGI [39] was 1120 nM. It also gave a GI50 [11] of 564 nM, a TGI [11] of 11700 nM and a GI50 [12] of 577 nM. It also gave a TGI [12] of 19100 nM, a GI50 [40] of 1080 nM and a TGI [40] of 12000 nM. It also gave a GI50 [13] of 622 nM, a TGI [13] of 3600 nM and a GI50 [14] of 2000 nM. The TGI [14] was 10600 nM, the GI50 [41] was 223 nM and the TGI [41] was 3330 nM. The GI50 [42] was 938 nM, the TGI [42] was 16600 nM and the GI50 [43] was 1400 nM. It also gave a TGI [43] of 5450 nM, a GI50 [15] of 371 nM and a TGI [15] of 1600 nM. It also gave a GI50 [44] of 535 nM, a TGI [44] of 2060 nM and a GI50 [45] of 318 nM. It also gave a TGI [45] of 11900 nM, a GI50 [46] of 875 nM and a TGI [46] of 4600 nM. For the same compound, the GI50 [47] was 603 nM, the TGI [47] was 17600 nM and the GI50 [48] was 412 nM. The TGI [48] was 2580 nM, the GI50 [49] was 1280 nM and the TGI [49] was greater than 100000 nM. For the same compound, the GI50 [16] was 162 nM, the TGI [16] was greater than 100000 nM and the GI50 [50] was 739 nM. The TGI [50] was 11800 nM, the GI50 [51] was 1100 nM and the TGI [51] was 2760 nM. It also gave a GI50 [52] of 355 nM, a TGI [52] of 17100 nM and a GI50 [53] of 385 nM. For the same compound, the TGI [53] was 9370 nM, the GI50 [17] was 1800 nM and the TGI [17] was 3370 nM. It also gave a GI50 [54] of 637 nM, a TGI [54] of 2430 nM and a GI50 [55] of 412 nM. It also gave a TGI [55] of 3410 nM, a GI50 [56] of 489 nM and a TGI [56] of 3860 nM. The GI50 [57] was 356 nM, the TGI [57] was 2740 nM and the GI50 [58] was 1820 nM. The TGI [58] was 4490 nM.
